Test results from ChEMBL document CHEMBL1152926, “Terpenoid constituents of Abies chensiensis with potential anti-inflammatory activity” (J Nat Prod, 2009).
Converted amounts (≈) assume the structure as drawn.

Legend:
RAW264.7 [1] = assay: Antiinflammatory activity in mouse RAW264.7 cells assessed as inhibition of LPS-induced nitric oxide production; type: functional, cell-based
RAW264.7 [2] = assay: Cytotoxicity against mouse RAW264.7 cells; type: cell-based

Row | IC50 (RAW264.7 [1]) | SMILES | IC50 (RAW264.7 [2])
1 | 9.6 µg/mL (≈ 33 µM) | C=C[C@@](C)(O)CC[C@H]1C(=C)CC[C@H]2C(C)(C)CCC[C@]12C [MANOOL] | 32.3 µg/mL (≈ 111 µM)
2 | 9.1 µg/mL (≈ 19.5 µM) | CC1=CC(O)(C[C@@H](C)C2=CC[C@@]3(C)C4=C(CC[C@]23C)[C@@]2(C)CCC(=O)C(C)(C)[C@@H]2CC4)OC1=O (some centres not stated) [NEOABIESLACTONE E] | 20 µg/mL (≈ 42.9 µM)
3 | 1.9 µg/mL (≈ 6.2 µM) | C=C[C@@](C)(O)[C@H]1C[C@@H]2[C@@]3(C)CCCC(C)(C)[C@@H]3CC[C@@]2(C)O1 | 0.6 µg/mL (≈ 1.96 µM)

Row | SMILES | IC50 (RAW264.7 [1]) | IC50 (RAW264.7 [2])
4 | N=C(N)NN [PIMAGEDINE] | 3.4 µg/mL (≈ 45.9 µM) | –
